Converted amounts (≈) assume the structure as drawn. “Also recorded” adds a separate entry of the source.
Columns and labels:
S180 sarcoma = assay: In vivo tumor inhibition experiment, transplanted tumor S180 in mice; design: species or system Kunming mice; settings: for Tumor inhibition rate % / Tumor weight (g) X ± SD: S180 sarcoma mice, dl, 4, killed on eighth day
Procedure: In Vivo Tumor Inhibition Experiment of Example
The inhibitory effects of example S47 and example S70 of the present disclosure on animal transplanted tumor S180 were tested.
Kunming mice, ♀, 22±1 g, were purchased from Shanghai Slac Laboratory Animal Co., Ltd. Certificate number: SCXK (Shanghai) 2013-0010-02. Feeding environment: SPF level. Example S47, example S70 and carboplatin, a positive control drug, were prepared with 5% glucose to the required concentration. Mice were subcutaneously inoculated with S180 sarcoma cells, and the drug administration was started on the next day of inoculation. The mice were killed on the eighth day, and the tumor was weighed and the tumor inhibition rate was calculated.
Tumor inhibition rate=(tumor weight in the control group−tumor weight in the treatment group)/tumor weight in the control group×100

[1] = In vitro water solubility experiment; settings: for solubility at 30 min / solubility: 25 °C, water, thermodynamic from solid; for improvement of water solubility compared with carboplatin: compared with the marketed drug carboplatin
Procedure: In Vitro Water Solubility Experiment of Example
At room temperature of 25° C., the test sample that had been ground into a fine powder was weighed accurately, and shaken vigorously for 30 seconds every 5 minutes in a certain volume of distilled water; and the dissolution of each test sample was observed within 30 minutes. If no visible solute particles were visible, the sample was considered to be completely dissolved.

[2] = background, studies have shown; cited from earlier work

CC(=O)N[C@@H](CCCNC(=N)N)C(=O)NCC(=O)N[C@@H](CC(=O)O)C(=O)NCCSC1CC(=O)N(CCCCCC(=O)NN=C2CC3(C2)C(=O)[O][Pt]([NH2])([NH2])[O]C3=O)C1=O (stereo partly drawn) [Example S70]
Tumor inhibition rate % (S180 sarcoma; dose 80, Ip): 52.3% | Tumor weight (g) X ± SD (S180 sarcoma; dose 80, Ip): 0.92 ± 0.20 g | Tumor inhibition rate % (S180 sarcoma; dose 160, Ip): 70.8% | Tumor weight (g) X ± SD (S180 sarcoma; dose 160, Ip): 0.56 ± 0.17 g | Tumor inhibition rate % (S180 sarcoma; dose 240, Ip): 84.6% | Tumor weight (g) X ± SD (S180 sarcoma; dose 240, Ip): 0.30 ± 0.14 g | inhibitory effect on growth of S180 sarcoma of mice (in words) (S180 sarcoma; compared with carboplatin at equimolar concentrations): more obvious ability to inhibit the growth of transplanted tumor S180 than the clinical drug carboplatin; also recorded: significantly better than carboplatin

N=C(N)NCCC[C@@H]1NC(=O)[C@@H](CCCCNC(=O)CCOCCOCCOCCOCCNC(=O)CC[C@H](NC(=O)CCSC2CC(=O)N(CCCCCC(=O)NN=C3CC4(C3)C(=O)[O][Pt]([NH2])([NH2])[O]C4=O)C2=O)C(=O)NCCOCCOCCOCCOCCC(=O)NCCCC[C@H]2NC(=O)[C@@H](Cc3ccccc3)NC(=O)[C@H](CC(=O)O)NC(=O)CNC(=O)[C@H](CCCNC(=N)N)NC2=O)NC(=O)[C@@H](Cc2ccccc2)NC(=O)[C@H](CC(=O)O)NC(=O)CNC1=O (stereo partly drawn) [Example S72]
solubility at 30 min [1]: > 30 mg/mL | improvement of water solubility compared with carboplatin [1]: ~1 fold

N=C(N)NCCC[C@@H]1NC(=O)[C@@H](CCCCNC(=O)CCOCCOCCOCCOCCNC(=O)CC[C@H](NC(=O)CCSC2CC(=O)N(CCOCCOCCC(=O)NN=C3CC4(C3)C(=O)[O][Pt]([NH2])([NH2])[O]C4=O)C2=O)C(=O)NCCOCCOCCOCCOCCC(=O)NCCCC[C@H]2NC(=O)[C@@H](Cc3ccccc3)NC(=O)[C@H](CC(=O)O)NC(=O)CNC(=O)[C@H](CCCNC(=N)N)NC2=O)NC(=O)[C@@H](Cc2ccccc2)NC(=O)[C@H](CC(=O)O)NC(=O)CNC1=O (stereo partly drawn) [Example S80]
solubility at 30 min [1]: > 30 mg/mL | improvement of water solubility compared with carboplatin [1]: ~1 fold

N=C(N)NCCC[C@@H]1NC(=O)[C@@H](CCCCNC(=O)CCOCCOCCOCCOCCNC(=O)CC[C@H](NC(=O)CCSC2CC(=O)N(CC3CCC(C(=O)NN=C4CC(C(=O)O)(C(=O)O)C4)CC3)C2=O)C(=O)NCCOCCOCCOCCOCCC(=O)NCCCC[C@H]2NC(=O)[C@@H](Cc3ccccc3)NC(=O)[C@H](CC(=O)O)NC(=O)CNC(=O)[C@H](CCCNC(=N)N)NC2=O)NC(=O)[C@@H](Cc2ccccc2)NC(=O)[C@H](CC(=O)O)NC(=O)CNC1=O (stereo partly drawn) [Example S95]
solubility [1]: > 30 mg/mL

N=C(N)NCCC[C@@H]1NC(=O)[C@@H](CCCCNC(=O)CCOCCOCCOCCOCCNC(=O)CC[C@H](NC(=O)CCSCC2=CCC(=O)N2CC2CCC(C(=O)NN=C3CC(C(=O)O)(C(=O)O)C3)CC2)C(=O)NCCOCCOCCOCCOCCC(=O)NCCCC[C@H]2NC(=O)[C@@H](Cc3ccccc3)NC(=O)[C@H](CC(=O)O)NC(=O)CNC(=O)[C@H](CCCNC(=N)N)NC2=O)NC(=O)[C@@H](Cc2ccccc2)NC(=O)[C@H](CC(=O)O)NC(=O)CNC1=O (stereo partly drawn) [Example S97]
solubility [1]: 30 mg/mL (≈ 13.1 mM)

[NH2][Pt]1([NH2])[O]C(=O)C2(CCC2)C(=O)[O]1 [carboplatin, reference compound]
solubility at 30 min [1]: 16.6 mg/mL | water solubility [2]: 17.0 mg/mL

From patent publication US20230339997A1, “CLASS OF PLATINUM COMPOUNDS FOR TREATING CANCER, AND METHOD FOR PREPARATION THEREOF” (SHANGHAI HAIJU BIOLOGICAL TECHNOLOGY CO., LTD., priority 2020, published 2023)
